PubChem BioAssay AID248 (DTP/NCI, 2004)
Values joined by “and” are separate entries in the source; they are usually repeats but may differ in a detail not shown here. Identical values can stand only once. Toxic doses and inconclusive results are not listed.

System: L1210 leukemia ip in BDF1 mice, survival T/C
Experiment: NCI In Vivo Anticancer Drug Screen. Data for tumor model L1210 Leukemia (intraperitoneal) in B6D2F1 (BDF1) mice
Details: endpoint: mean survival time, higher = longer survival
Outline: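 Read-out is survival time, reported as the treated-group measurement over the vehicle-control measurement.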

## NC(Cc1cc([N+](=O)[O-])ccc1CN(CCCl)CCCl)C(=O)O (centres undefined)
dose: 3.6 mg/kg/injection, schedule: Q04DX003 (ip), vehicle: saline
  T/C: 161 % of control
dose: 6.0 mg/kg/injection, schedule: Q01DX001 (ip), vehicle: saline
  T/C: 198 % of control
dose: 6.0 mg/kg/injection, schedule: Q04DX003 (ip), vehicle: saline
  T/C: 158 % of control and 315 % of control
dose: 10.0 mg/kg/injection, schedule: Q01DX001 (ip), vehicle: saline
  T/C: 173 % of control and 248 % of control
dose: 10.0 mg/kg/injection, schedule: Q04DX003 (ip), vehicle: saline
  T/C: 163 % of control and 352 % of control
dose: 16.7 mg/kg/injection, schedule: Q01DX001 (ip), vehicle: saline
  T/C: 302 % of control and 309 % of control
dose: 16.7 mg/kg/injection, schedule: Q04DX003 (ip), vehicle: saline
  T/C: 151 % of control

## Cc1ccc(CNc2cc(C)ccn2)cc1
dose: 50.0 mg/kg/injection, schedule: Q01DX009 (ip), vehicle: saline with Tween-80
  T/C: 96 % of control
dose: 100.0 mg/kg/injection, schedule: Q01DX009 (ip), vehicle: saline with Tween-80
  T/C: 101 % of control
dose: 200.0 mg/kg/injection, schedule: Q01DX009 (ip), vehicle: saline with Tween-80
  T/C: 101 % of control

## CC(/C=N/N/C(N)=N\N)=N\N/C(N)=N/N
dose: 15.0 mg/kg/injection, schedule: Q01DX Z (ip), vehicle: methylcellulose (MC)
  T/C: 105 % of control
dose: 30.0 mg/kg/injection, schedule: Q01DX Z (ip), vehicle: methylcellulose (MC)
  T/C: 103 % of control
dose: 60.0 mg/kg/injection, schedule: Q01DX Z (ip), vehicle: methylcellulose (MC)
  T/C: 98 % of control
dose: 120.0 mg/kg/injection, schedule: Q01DX Z (ip), vehicle: methylcellulose (MC)
  T/C: 104 % of control
dose: 240.0 mg/kg/injection, schedule: Q01DX Z (ip), vehicle: methylcellulose (MC)
  T/C: 98 % of control

## CN1CCC(OC(=O)C2CC(=O)NC(=O)C2)CC1
dose: 100.0 mg/kg/injection, schedule: Q04DX003 (ip), vehicle: Klucel (hydroxypropylcellulose) (HPC)
  T/C: 107 % of control
dose: 200.0 mg/kg/injection, schedule: Q04DX003 (ip), vehicle: Klucel (hydroxypropylcellulose) (HPC)
  T/C: 102 % of control
dose: 400.0 mg/kg/injection, schedule: Q04DX003 (ip), vehicle: Klucel (hydroxypropylcellulose) (HPC)
  T/C: 94 % of control

## CCCCN(C)N=Nc1c[nH]c(=O)[nH]c1=O
dose: 75.0 mg/kg/injection, schedule: Q01DX001 (ip), vehicle: other
  T/C: 95 % of control

## S=c1cccn[nH]1
dose: 12.5 mg/kg/injection, schedule: Q01DX009 (ip), vehicle: other
  T/C: 459 % of control
dose: 25.0 mg/kg/injection, schedule: Q01DX009 (ip), vehicle: other
  T/C: 459 % of control
dose: 50.0 mg/kg/injection, schedule: Q01DX009 (ip), vehicle: other
  T/C: 406 % of control
dose: 59.0 mg/kg/injection, schedule: Q01DX009 (ip), vehicle: other
  T/C: 93 % of control and 101 % of control
dose: 89.0 mg/kg/injection, schedule: Q01DX009 (ip), vehicle: other
  T/C: 96 % of control and 99 % of control
dose: 100.0 mg/kg/injection, schedule: Q01DX009 (ip), vehicle: other
  T/C: 341 % of control
dose: 133.0 mg/kg/injection, schedule: Q01DX009 (ip), vehicle: other
  T/C: 94 % of control and 100 % of control
dose: 300.0 mg/kg/injection, schedule: Q01DX009 (ip), vehicle: other
  T/C: 96 % of control and 90 % of control

## Clc1cccc(Cl)c1/C=N/N1CCN(/N=C/c2c(Cl)cccc2Cl)CC1
dose: 100.0 mg/kg/injection, schedule: Q01DX001 (ip), vehicle: carboxymethylcellulose (CMC)
  T/C: 91 % of control
dose: 200.0 mg/kg/injection, schedule: Q01DX001 (ip), vehicle: carboxymethylcellulose (CMC)
  T/C: 89 % of control
dose: 400.0 mg/kg/injection, schedule: Q01DX001 (ip), vehicle: carboxymethylcellulose (CMC)
  T/C: 91 % of control

## Cc1ccc(S(=O)(=O)NC(=O)C(C)Br)cc1 (centres undefined)
dose: 150.0 mg/kg/injection, schedule: Q01DX001 (ip), vehicle: steriod suspending solution
  T/C: 95 % of control
dose: 300.0 mg/kg/injection, schedule: Q01DX001 (ip), vehicle: steriod suspending solution
  T/C: 95 % of control

## CC(C(=O)O)(c1c[nH]c2ccccc12)c1c[nH]c2ccccc12
dose: 50.0 mg/kg/injection, schedule: Q01DX001 (ip), vehicle: saline
  T/C: 106 % of control
dose: 100.0 mg/kg/injection, schedule: Q01DX001 (ip), vehicle: saline
  T/C: 103 % of control
dose: 200.0 mg/kg/injection, schedule: Q01DX001 (ip), vehicle: saline
  T/C: 92 % of control
dose: 400.0 mg/kg/injection, schedule: Q01DX001 (ip), vehicle: saline
  T/C: 86 % of control

## CCC[CH2][Sn]([CH2]CCC)([CH2]CCC)[CH2]CC(N)=O
dose: 50.0 mg/kg/injection, schedule: Q01DX009 (ip), vehicle: saline
  T/C: 96 % of control and 106 % of control
dose: 100.0 mg/kg/injection, schedule: Q01DX009 (ip), vehicle: saline
  T/C: 96 % of control and 106 % of control
dose: 200.0 mg/kg/injection, schedule: Q01DX009 (ip), vehicle: saline
  T/C: 101 % of control
